# Paper PMC5107956 (2016)
# Columns and labels:
# Assay in all cases: fluorescent intercalator displacement (thiazole orange)
# Conditions in all cases: 50 mM KCl, 10 mM potassium cacodylate (60 mM K+); pH 7.4, room temperature; thiazole orange 0.625 μM displaced; DNA 0.25 μM; DMSO stocks
# [1] = tested on: c-Kit (c-Kit21) (DNA, G4) CGGGCGGGCGCGAGGGAGGGG
# [2] = tested on: HTelo (DNA, G4) AGGGTTAGGGTTAGGGTTAGGG
# [3] = tested on: VEGF (VEGF22) (DNA, G4) CGGGGCGGGCCGGGGGCGGGGT
# [4] = tested on: HIF1α (HIF1) (DNA, G4) CGGGGAGGGGAGAGGGGGCGGGA
# [5] = tested on: KRAS m(1:5:1) (DNA, G4) GGGAGGGAAGGAGGGAGGG
# [6] = tested on: ds26 (DNA, duplex) CAATCGGATCGAATTCGATCCGATTG
# [7] = tested on: c-Myc (DNA, G4) GGGAGGGTGGGGAGGGTGGG
# [8] = tested on: hTERT (DNA, G4) GGGGAGGGGCTGGGAGGGCCC
# [9] = tested on: KRAS m(1:9:1) (DNA, G4) GGGAGGGAAGGAGGGAGGGAGGG
compound,measurement,setting,value
O=C(N/N=C/c1ccc(O)cc1[O-])N(Cc1ccccc1)Cc1ccccc1.[Cu+2].c1ccncc1,DC50,[1],3.58 (0.28) μM
same,DC50,[2],1.01 (0.03) μM
same,DC50,[3],11.58 (0.41) μM
same,DC50,[4],10.20 (0.54) μM
same,DC50,[5],2.28 (0.10) μM
same,DC50,[6],9.91 (0.55) μM
same,DC50,[7],7.15 (0.17) μM
same,DC50,[8],10.51 (0.61) μM
same,DC50,[9],2.35 (0.09) μM
